Reference: article PMC3090687 (Journal of medicinal chemistry, 2011)

Experiment: in vivo pharmacokinetics in mice, intravenous and oral
Parameters: species or system mouse

oral bioavailability, in words (oral administration)	improvement of bioavailability compared to compound 1 (oral, comparison with ref 22)	Structure (SMILES)
very limited oral bioavailability		CCC(=O)N1CCN(c2ccc(-n3c(=O)ccc4cnc5ccc(-c6cnc7ccccc7c6)cc5c43)cc2C(F)(F)F)CC1 [Compound 1, 1-(4-(4-propionylpiperazin-1-yl)-3-(trifluoromethyl)phenyl)-9-(quinolin-3-yl)benzo[h][1,6]naphthyridin-2(1H)-one]
	approximately 10 fold	Nc1ccc(-c2ccc3ncc4ccc(=O)n(-c5cccc(C(F)(F)F)c5)c4c3c2)cn1 [Compound 3, 9-(6-aminopyridin-3-yl)-1-(3-(trifluoromethyl)phenyl)benzo[h][1,6]naphthyridin-2(1H)-one]
